“Also recorded” adds a separate entry of the source.
Key:
[1] = test system: 5555 murine melanoma cell line; conditions: reported by Hirata et al.; cited from earlier work
[2] = test system: 5555 murine melanoma cell line; conditions: reported by Hirata et al.; cited from earlier work; remark: listed apart in the source
[3] = test system: BRAFV600E human melanoma A375 cells; test: A375 human melanoma xenograft in 8HUM_Rag2-/- mice, tumour volume under daily oral treatment; format: in vivo; conditions: adult female 8HUM_Rag2-/- mice
Description: Adult female 8HUM mice (11-19w, n=3) were injected s.c. in both flanks with 4.4×10^6 A375 melanoma cells, in 100 μl DMEM. Tumours were allowed to establish and on day 28 after implantation daily treatment was commenced with either vehicle (0.5% (w/v) hydroxypropylmethylcellulose, 0.2% (v/v) Tween-80; closed circles) or dabrafenib (in vehicle, open circles) suspended at 6.3 mg/ml and administered at 5 ml/kg, such that dabrafenib dose administered was 31.5 mg/kg (arrow). Tumour measurements were taken three times weekly, then daily as required, and total volume of tumours on both flanks was calculated as detailed in Methods section.
Adult female (>8<22 weeks) mice were randomly allocated into control or experimental groups and allowed to adapt to their social setting for 7d before study start. Cages were adjacent to each other on the same level of a ventilated rack, in the same room, for the study duration.
Data analysis: Dependencies of calculated tumour volumes versus time were analysed by non-linear regression using exponential growth and exponential decay functions (Prism 5 software, Graphpad, US). Rate constants in both functions were constrained to positive values to maintain consistency with the function name. Values for plateau parameters in exponential decay function were set to zero.

[4] = test system: 5555 murine melanoma cells; test: Syngeneic graft of 5555 murine melanoma cells in 8HUM mice, tumour volume under daily oral treatment; format: in vivo, mouse; conditions: adult female 8HUM mice, n=5, 31.5 mg/kg daily p.o. from day 5 after implantation, study ended day 15, versus vehicle
Description: FIG. 1: A. Xenograft of BRAFV600E human melanoma A375 cells in Rag2^null/8HUM mice (top). Bottom-no growth of A375 cells in immunocompetent 8HUM mice. B. Growth of a murine melanoma syngeneic graft in 8HUM mice and response to dabrafenib treatment. Adult female 8HUM_Rag2−/− mice (18-21w, n=5) were injected subcutaneously (s.c.) in one flank with 3.5×10^6 5555 murine melanoma cells, in 100 μl ECM diluted 1:1 with DMEM. […] Tumour measurements were taken three times weekly, then daily as required, and tumour volume calculated as detailed in Methods section. […]
Data analysis: Dependencies of calculated tumour volumes versus time were analysed by non-linear regression using exponential growth and exponential decay functions (Prism 5 software, Graphpad, US). […]
A375 human melanoma cells (ATCC: CRL-1619; RRID: CVCL_UD29) and 5555 murine melanoma cells (19-21) were grown as directed, with the latter subject to commercial murine pathogen testing (IDEXX Bioanalytics GmbH, Germany) and both to in-house mycoplasma testing (MycoAlert Mycoplasma Detection kit, Lonza Rockland, USA) before use. Passage number was recorded for each study. […]
Once established, tumours were measured twice in two dimensions (maximum breadth and length) using digital callipers, by the same person to avoid interindividual variation. […]

Row | Structure (SMILES) | sensitivity of 5555 cell line in vivo [1] | sensitivity of 5555 cell line in vitro [2] | fit of tumour volume versus time by non-linear regression (exponential growth or decay) ([3]; A375 xenograft, 31.5 mg/kg daily p.o. d28-d35, vehicle group followed exponential growth) | total mean tumour volume of A375 xenograft (both flanks) ([3]; n=3, 31.5 mg/kg daily p.o. from d28 to d35, versus vehicle) | tumour growth / mean tumour volume of 5555 (GM5555) murine melanoma syngeneic graft [4] | tumour growth / mean tumour volume of 5555 (GM5555) murine melanoma syngeneic graft ([4]; listed as Dabrafenib)
1 | CCCS(=O)(=O)Nc1ccc(F)c(C(=O)c2c[nH]c3ncc(Cl)cc23)c1F [PLX4720] | refractory | sensitive | – | – | – | –
2 | CC(C)(C)c1nc(-c2cccc(NS(=O)(=O)c3c(F)cccc3F)c2F)c(-c2ccnc(N)n2)s1 [dabrafenib] | – | – | follows exponential decay dependency | shrank in size | became almost undetectable; also recorded: exquisitely sensitive | successfully inhibited

From patent US20260076346A1, “IMMUNODEFICIENT NON-HUMAN ANIMALS FOR ASSESSING DRUG METABOLISM AND TOXICITY” (UNIVERSITY OF DUNDEE, priority 2022, published 2026)
